Laboratory results taken from patent publication US20070128217A1 (priority 2003, published 2007).

Tests used:
[1] = system: control sera (pooled serum of ten healthy LUMC hospital workers; commercial negative donor pooled serum from the Dutch bloodbank); format: binding, human; parameters: Binding of Control serum LUMC to linear peptides / Binding of Control serum Blood-bank to linear peptides / Binding of Control serum LUMC to looped peptides / Binding of Control Serum Blood-Bank to Looped peptides / Binding of Control serum LUMC to linear peptides of the protein M of SARS-CoV Urbani / Binding of Control serum Blood-bank to linear peptides of the protein M of SARS-CoV Urbani / Binding of Control serum LUMC to looped peptides of the protein M of SARS-CoV Urbani / Binding of Control Serum Blood-Bank to Looped peptides of the protein M of SARS-CoV Urbani: unit not given here
[2] = system: antibodies in sera from SARS patients (sera 1a, 1b, 2, 6, 37, 62, London, SARS-yellow, SARS-green); format: binding, human; parameters: Binding of serum 6 to linear peptides of protein X1 of SARS-CoV Urbani / Binding of serum 37 to linear peptides of protein X1 of SARS-CoV Urbani / Binding of serum 6 to looped/cyclic peptide (PEPSCAN-ELISA) / Binding of serum 37 to looped/cyclic peptide (PEPSCAN-ELISA) / Binding of serum 37 to looped/cyclic peptides of protein X1 of SARS-CoV Urbani / Binding of serum 6 to linear peptides of protein X2 / Binding of serum 37 to linear peptides of protein X2 / Binding of serum 37 to looped/cyclic peptides of protein X2 of SARS-CoV Urbani / Binding of serum 6 to linear peptides of protein M of SARS-CoV Urbani / Binding of serum 37 to linear peptides of protein M of SARS-CoV Urbani / Binding of serum 6 to looped/cyclic peptides of protein M of SARS-CoV Urbani / Binding of serum 37 to looped/cyclic peptides of protein M of SARS-CoV Urbani / Binding of serum 6 to linear peptides of protein X3 of SARS-CoV Urbani / Binding of serum 37 to linear peptides of protein X3 of SARS-CoV Urbani / Binding of serum 37 to looped/cyclic peptides of protein X3 of SARS-CoV Urbani / Binding of serum 6 to linear peptides of protein X4 of SARS-CoV Urbani / Binding of serum 37 to linear peptides of protein X4 of SARS-CoV Urbani / Binding of serum 37 to looped/cyclic peptides of protein X4 of SARS-CoV Urbani / Binding of serum 6 to linear peptides of protein X5 of SARS-CoV Urbani / Binding of serum 37 to linear peptides of protein X5 of SARS-CoV Urbani / Binding of serum 37 to looped/cyclic peptides of protein X5 of SARS-CoV Urbani / Binding of serum 6 to linear peptides of protein N of SARS-CoV Urbani / Binding of serum 37 to linear peptides of protein N of SARS-CoV Urbani / Binding of serum 6 to linear peptide (PEPSCAN-ELISA) / Binding of serum 1a to looped/cyclic peptides of protein N of SARS-CoV Urbani / Binding of serum 1b to looped/cyclic peptides of protein N of SARS-CoV Urbani / Binding of serum 2 to looped/cyclic peptides of protein N of SARS-CoV Urbani / Binding of serum 6 to looped/cyclic peptides of protein N of SARS-CoV Urbani / Binding of serum 37 to looped/cyclic peptides of protein N of SARS-CoV Urbani / Binding of serum 62 to looped/cyclic peptides of protein N of SARS-CoV Urbani / Binding of serum London to looped/cyclic peptides of protein N of SARS-CoV Urbani / Binding of serum SARS-green to looped/cyclic peptides of protein N of SARS-CoV Urbani: unit not given here
[3] = system: rabbit serum obtained by immunizing a rabbit with the SARS-CoV strain Frankfurt 1; format: binding; parameters: Binding of a rabbit serum to linear peptides / Binding of a rabbit serum to looped peptides / Rabbit serum linear peptides / Rabbit serum looped peptides / Binding of a rabbit serum to linear peptides of protein N of SARS-CoV Urbani (Rabbit serum linear peptides) / Binding of a rabbit serum to looped/cyclic peptides of protein N of SARS-CoV Urbani (Rabbit serum looped peptides): unit not given here

Sequence | Binding of Control Serum Blood-Bank to Looped peptides [1] | Binding of Control serum Blood-bank to linear peptides [1] | Binding of Control serum LUMC to linear peptides [1] | Binding of Control serum LUMC to looped peptides [1] | Binding of serum 1a to linear peptides of protein X1 of SARS-CoV Urbani [2] | Binding of serum 1b to linear peptides of protein X1 of SARS-CoV Urbani [2] | Binding of serum 2 to linear peptides of protein X1 of SARS-CoV Urbani [2] | Binding of serum 6 to linear peptides of protein X1 of SARS-CoV Urbani [2] | Binding of serum 37 to linear peptides of protein X1 of SARS-CoV Urbani [2] | Binding of serum 62 to linear peptides of protein X1 of SARS-CoV Urbani [2] | Binding of serum London to linear peptides of protein X1 of SARS-CoV Urbani [2] | Binding of serum SARS-green to linear peptides of protein X1 of SARS-CoV Urbani [2] | Binding of serum SARS-yellow to linear peptides of protein X1 of SARS-CoV Urbani [2] | Binding of a rabbit serum to linear peptides [3] | Binding of a rabbit serum to looped peptides [3] | Rabbit serum linear peptides [3] | Rabbit serum looped peptides [3] | Binding of serum 1a to looped/cyclic peptide (PEPSCAN-ELISA) [2] | Binding of serum 1b to looped/cyclic peptide (PEPSCAN-ELISA) [2] | Binding of serum 2 to looped/cyclic peptide (PEPSCAN-ELISA) [2] | other results
NVQIHTIDGSSGVAN | 0.4 | 0.5 | 0.5 | 0.4 | 0.7 | 0.5 | 0.5 | 0.4 | 0.7 | 0.6 | 0.3 | 0.3 | 0.4 | 0.1 | 0.3 |  |  |  |  |  | Binding of serum 1a to looped/cyclic peptides of protein X1 of SARS-CoV Urbani [2]: 0.2; Binding of serum 1b to looped/cyclic peptides of protein X1 of SARS-CoV Urbani [2]: 0.2; Binding of serum 2 to looped/cyclic peptides of protein X1 of SARS-CoV Urbani [2]: 0.1; Binding of serum 6 to looped/cyclic peptides of protein X1 of SARS-CoV Urbani [2]: 0.1; Binding of serum 37 to looped/cyclic peptides of protein X1 of SARS-CoV Urbani [2]: 0.3; Binding of serum 62 to looped/cyclic peptides of protein X1 of SARS-CoV Urbani [2]: 0.3; Binding of serum London to looped/cyclic peptides of protein X1 of SARS-CoV Urbani [2]: 0.2; Binding of serum SARS-green to looped/cyclic peptides of protein X1 of SARS-CoV Urbani [2]: 0.2; Binding of serum SARS-yellow to looped/cyclic peptides of protein X1 of SARS-CoV Urbani [2]: 0.1
PFHRWHTMVQTCTPN | 0.5 | 0.7 | 0.5 | 0.4 |  |  |  |  |  |  |  |  |  |  |  | 0.5 | 0.4 |  |  |  | Binding of serum 1a to linear peptides of protein X5 of SARS-CoV Urbani [2]: 0.7; Binding of serum 1a to looped/cyclic peptides of protein X5 of SARS-CoV Urbani [2]: 0.6; Binding of serum 1b to linear peptides of protein X5 of SARS-CoV Urbani [2]: 0.7; Binding of serum 1b to looped/cyclic peptides of protein X5 of SARS-CoV Urbani [2]: 0.5; Binding of serum 2 to linear peptides of protein X5 of SARS-CoV Urbani [2]: 0.7; Binding of serum 2 to looped/cyclic peptides of protein X5 of SARS-CoV Urbani [2]: 0.6; Binding of serum 6 to linear peptides of protein X5 of SARS-CoV Urbani [2]: 0.7; Binding of serum 6 to looped/cyclic peptides of protein X5 of SARS-CoV Urbani [2]: 0.3; Binding of serum 37 to linear peptides of protein X5 of SARS-CoV Urbani [2]: 0.7; Binding of serum 37 to looped/cyclic peptides of protein X5 of SARS-CoV Urbani [2]: 0.5; Binding of serum 62 to linear peptides of protein X5 of SARS-CoV Urbani [2]: 0.7; Binding of serum 62 to looped/cyclic peptides of protein X5 of SARS-CoV Urbani [2]: 0.3; Binding of serum London to linear peptides of protein X5 of SARS-CoV Urbani [2]: 0.7; Binding of serum London to looped/cyclic peptides of protein X5 of SARS-CoV Urbani [2]: 0.2; Binding of serum SARS-green to linear peptides of protein X5 of SARS-CoV Urbani [2]: 0.5; Binding of serum SARS-green to looped/cyclic peptides of protein X5 of SARS-CoV Urbani [2]: 0.3; Binding of serum SARS-yellow to linear peptides of protein X5 of SARS-CoV Urbani [2]: 0.4; Binding of serum SARS-yellow to looped/cyclic peptides of protein X5 of SARS-CoV Urbani [2]: 0.3
PKLFIRQEEVQQELY | 0.6 | 0.7 | 0.5 | 0.7 |  |  |  |  |  |  |  |  |  |  |  | 0.4 | 0.4 |  |  |  | Binding of serum 1a to linear peptides of protein X4 of SARS-CoV Urbani [2]: 0.7; Binding of serum 1a to looped/cyclic peptides of protein X4 of SARS-CoV Urbani [2]: 0.8; Binding of serum 1b to linear peptides of protein X4 of SARS-CoV Urbani [2]: 0.6; Binding of serum 1b to looped/cyclic peptides of protein X4 of SARS-CoV Urbani [2]: 0.6; Binding of serum 2 to linear peptides of protein X4 of SARS-CoV Urbani [2]: 0.4; Binding of serum 2 to looped/cyclic peptides of protein X4 of SARS-CoV Urbani [2]: 0.5; Binding of serum 6 to linear peptides of protein X4 of SARS-CoV Urbani [2]: 0.5; Binding of serum 6 to looped/cyclic peptides of protein X4 of SARS-CoV Urbani [2]: 0.5; Binding of serum 37 to linear peptides of protein X4 of SARS-CoV Urbani [2]: 0.8; Binding of serum 37 to looped/cyclic peptides of protein X4 of SARS-CoV Urbani [2]: 0.7; Binding of serum 62 to linear peptides of protein X4 of SARS-CoV Urbani [2]: 0.8; Binding of serum 62 to looped/cyclic peptides of protein X4 of SARS-CoV Urbani [2]: 0.6; Binding of serum London to linear peptides of protein X4 of SARS-CoV Urbani [2]: 0.8; Binding of serum London to looped/cyclic peptides of protein X4 of SARS-CoV Urbani [2]: 0.4; Binding of serum SARS-green to linear peptides of protein X4 of SARS-CoV Urbani [2]: 0.7; Binding of serum SARS-green to looped/cyclic peptides of protein X4 of SARS-CoV Urbani [2]: 0.5; Binding of serum SARS-yellow to linear peptides of protein X4 of SARS-CoV Urbani [2]: 0.8; Binding of serum SARS-yellow to looped/cyclic peptides of protein X4 of SARS-CoV Urbani [2]: 0.4
PLLYDANYFVCWHTH | 0.6 | 0.7 | 0.6 | 0.6 | 0.9 | 0.8 | 0.6 | 0.6 | 0.8 | 0.8 | 0.4 | 0.4 | 0.5 | 0.1 | 0.5 |  |  | 0.6 | 0.6 | 0.4 | Binding of serum 6 to looped/cyclic peptide (PEPSCAN-ELISA) [2]: 0.4; Binding of serum 37 to looped/cyclic peptide (PEPSCAN-ELISA) [2]: 0.7; Binding of serum 62 to looped/cyclic peptide (PEPSCAN-ELISA) [2]: 0.7; Binding of serum London to looped/cyclic peptide (PEPSCAN-ELISA) [2]: 0.2; Binding of serum SARS-green to looped/cyclic peptide (PEPSCAN-ELISA) [2]: 0.3; Binding of serum SARS-yellow to looped/cyclic peptide (PEPSCAN-ELISA) [2]: 0.4
PLQASLPFGWLVIGV | 0.7 | 0.8 | 0.9 | 0.5 | 0.8 | 0.5 | 0.5 | 0.5 | 0.7 | 0.7 | 0.3 | 0.4 | 0.6 | 0.1 | 0.4 |  |  | 0.5 | 0.3 | 0.4 | Binding of serum 6 to looped/cyclic peptide (PEPSCAN-ELISA) [2]: 0.4; Binding of serum 37 to looped/cyclic peptide (PEPSCAN-ELISA) [2]: 0.5; Binding of serum 62 to looped/cyclic peptide (PEPSCAN-ELISA) [2]: 0.7; Binding of serum London to looped/cyclic peptide (PEPSCAN-ELISA) [2]: 0.2; Binding of serum SARS-green to looped/cyclic peptide (PEPSCAN-ELISA) [2]: 0.3; Binding of serum SARS-yellow to looped/cyclic peptide (PEPSCAN-ELISA) [2]: 0.4
